According to the Deep4Chem optical property database:
Blank lines part the entries; values can stand above or below the compound they belong to.

Test: photoluminescence quantum yield (fraction); solvent given as SMILES
[1] = in O=P(c1ccccc1)(c1ccccc1)c1ccccc1Oc1ccccc1P(=O)(c1ccccc1)c1ccccc1

SMILES: COc1ccc(-c2csc(/C(C#N)=C/c3ccncc3)n2)cc1
photoluminescence quantum yield (in CC#N): 0.04
photoluminescence quantum yield (in CCO): 0.002
photoluminescence quantum yield (in CN(C)C=O): 0.016
photoluminescence quantum yield (in CS(C)=O): 0.038
photoluminescence quantum yield (in Cc1ccccc1): 0.285
photoluminescence quantum yield (in ClCCl): 0.129

photoluminescence quantum yield (in CC#N): 0.311
SMILES: CC(C)(C)Nc1oc(C=Cc2ccccc2)c(C(=O)OC(C)(C)C)c1C(=O)OC(C)(C)C

SMILES: COc1ccc(/C=C/C2=[O+][B-](F)(F)OC(/C=C/c3ccc(OC)cc3)=C2c2ccccc2)cc1
photoluminescence quantum yield (in CC#N): 0.42
photoluminescence quantum yield (in CC(C)=O): 0.41
photoluminescence quantum yield (in CCOC(C)=O): 0.34
photoluminescence quantum yield (in CCOCC): 0.27
photoluminescence quantum yield (in ClC(Cl)(Cl)Cl): 0.24
photoluminescence quantum yield (in ClCCl): 0.41

photoluminescence quantum yield (in C1CCCCC1): 0.81
photoluminescence quantum yield (in CCOC(C)=O): 0.69
photoluminescence quantum yield (in CO): 0.48
SMILES: Cc1ccccc1C1=C2C=c3c(oc4c3ccc3ccccc34)=[N+]2[B-](F)(F)n2c1cc1c3ccc4ccccc4c3oc12

photoluminescence quantum yield (in CCCCCC): 0.89
photoluminescence quantum yield (in CCCCCCCCO): 0.88
photoluminescence quantum yield (in CCOC(C)=O): 0.84
photoluminescence quantum yield (in CN(C)C=O): 0.6
photoluminescence quantum yield (in ClCCl): 0.89
SMILES: CC1=CC(C)=[N+]2C1=Cc1c3ccccc3c(C#Cc3ccccc3)n1[B-]2(F)F

SMILES: c1ccc(N2c3ccccc3Sc3cc(-c4cccc5nc6ccccc6cc45)ccc32)cc1
photoluminescence quantum yield (in CC#N): 0.0076
photoluminescence quantum yield (in CCCCCC): 0.213
photoluminescence quantum yield (in CCOCC): 0.17
photoluminescence quantum yield (in ClCCl): 0.0635

photoluminescence quantum yield (in ClCCl): 0.8
SMILES: CN(C)c1ccc(-c2nc(-c3ccc(N(C)C)cc3)c3ccccc3n2)cc1

SMILES: Cc1ccc(C)n1-c1cccc(C#N)c1
photoluminescence quantum yield (in C1CCOC1): 0.006
photoluminescence quantum yield (in CCCCCC): 0.004
photoluminescence quantum yield (in CCCCCl): 0.004
photoluminescence quantum yield (in CCOCC): 0.006
photoluminescence quantum yield (in ClCCl): 0.003

photoluminescence quantum yield (in ClCCl): 0.0026
SMILES: CC(=O)c1c(N[C@@H](Cc2ccccc2)C(=O)O)c2ccc(N(C)C)cc2oc1=O

SMILES: COc1ccc(N(c2ccc(OC)cc2)c2cc3ccc4cc(B(c5c(C)cc(C)cc5C)c5c(C)cc(C)cc5C)cc5ccc(c2)c3c45)cc1
photoluminescence quantum yield (in C1CCOC1): 0.44
photoluminescence quantum yield (in CC(C)=O): 0.21
photoluminescence quantum yield (in CCCCCC): 0.22
photoluminescence quantum yield (in Cc1ccccc1): 0.27
photoluminescence quantum yield (in ClC(Cl)Cl): 0.23
photoluminescence quantum yield (in ClCCl): 0.42

photoluminescence quantum yield (in ClC(Cl)Cl): 0.18
SMILES: COc1ccc(-c2nc3ccccc3nc2-c2ccc(OC)cc2)cc1

SMILES: O=C1c2ccccc2-c2cccc(O)c21
photoluminescence quantum yield (in C1CCCCC1): 0.0129
photoluminescence quantum yield (in C1COCCO1): 0.0284
photoluminescence quantum yield (in CC#N): 0.053
photoluminescence quantum yield (in CC(C)O): 0.024
photoluminescence quantum yield (in CCCCO): 0.022
photoluminescence quantum yield (in CCCO): 0.021
photoluminescence quantum yield (in CCO): 0.0197
photoluminescence quantum yield (in CCOC(C)=O): 0.0383
photoluminescence quantum yield (in CCOCC): 0.022
photoluminescence quantum yield (in CO): 0.012

photoluminescence quantum yield (in ClC(Cl)Cl): 0.023
SMILES: CCc1ccc(-n2c3ccccc3c3cc4c(cc32)c2ccccc2n4-c2ccc(CC)s2)s1

photoluminescence quantum yield (in ClCCl): 0.47
SMILES: O=C1c2ccccc2C2=Cc3cccc[n+]3[B-](F)(F)N12

photoluminescence quantum yield (in CC#N): 0.11
SMILES: Cc1ccc(-c2sc(/C(C#N)=C/c3ccc(C#N)cc3)nc2-c2ccc(Cl)cc2)cc1

photoluminescence quantum yield (in ClC(Cl)Cl): 0.006
SMILES: CCCCCCN1C(=O)c2cccc3cc(/N=C\c4cnc5ccccc5c4)cc(c23)C1=O

photoluminescence quantum yield (in C1CCOC1): 0.16
SMILES: CCC1(CC)c2ccccc2-c2c1c1c(c3c2C(CC)(CC)c2cc(/C=C/c4cccs4)ccc2-3)C(CC)(CC)c2cc(/C=C/c3cccs3)ccc2-1

photoluminescence quantum yield (in CCO): 0.35
photoluminescence quantum yield (in O): 0.48
SMILES: CC/[NH+]=c1\cc2oc3cc(NCCNC(=O)C(NC(=O)OC(C)(C)C)C(C)C)c4ccccc4c3nc-2cc1C (configuration not stated)

photoluminescence quantum yield (in CS(C)=O): 0.08
SMILES: C[N+]1=C(/C=C/C=C2/N(CCCc3ccccc3)c3ccccc3C2(C)C)C(C)(C)c2ccccc21

SMILES: F[B-]1(F)OC(c2ccccc2)=Nc2sc(-c3ccccc3)n[n+]21
photoluminescence quantum yield (in C1CCOC1): 0.02
photoluminescence quantum yield (in CCO): 0.01
photoluminescence quantum yield (in CCOC(C)=O): 0.01
photoluminescence quantum yield (in CN(C)C=O): 0.01
photoluminescence quantum yield (in Cc1ccccc1): 0.06
photoluminescence quantum yield (in ClC(Cl)Cl): 0.05
photoluminescence quantum yield (in ClCCl): 0.03

photoluminescence quantum yield (in CCO): 0.01
photoluminescence quantum yield (in CS(C)=O): 0.017
photoluminescence quantum yield (in O): 0.011
SMILES: CC1(C)C(/C=C/C=C/c2cc3ccc(O)cc3oc2=O)=[N+](CCCS(=O)(=O)[O-])c2ccc(S(=O)(=O)O)cc21

photoluminescence quantum yield (in CC#N): 0.01
SMILES: Fc1nc(F)c(F)c(/C=C2/C(c3c(F)c(F)nc(F)c3F)=Cc3ccccc32)c1F

SMILES: c1ccc(-c2nc(-c3ccccc3)nc(-c3ccccc3-n3c4ccccc4c4c5oc6ccccc6c5ccc43)n2)cc1
photoluminescence quantum yield [1]: 0.979

SMILES: O=Cc1nc2ccc(C#Cc3ccc(N(c4ccccc4)c4ccccc4)cc3)cc2s1
photoluminescence quantum yield (in Cc1ccccc1): 0.57

SMILES: CN(C)c1ccc(/C=C/c2nc3ccccc3s2)cc1
photoluminescence quantum yield (in C1CCCCC1): 0.001
photoluminescence quantum yield (in C1CCOC1): 0.003
photoluminescence quantum yield (in C1COCCO1): 0.0022
photoluminescence quantum yield (in CC#N): 0.0066
photoluminescence quantum yield (in CC(C)O): 0.0048
photoluminescence quantum yield (in CCCCCC): 0.0018
photoluminescence quantum yield (in CCCCCCC): 0.0014
photoluminescence quantum yield (in CCO): 0.0045
photoluminescence quantum yield (in CCOC(C)=O): 0.0053
photoluminescence quantum yield (in CCOCC): 0.002
photoluminescence quantum yield (in CN(C)C=O): 0.007
photoluminescence quantum yield (in CO): 0.003
photoluminescence quantum yield (in CS(C)=O): 0.0078
photoluminescence quantum yield (in O): 0.0012
photoluminescence quantum yield (in OCC(O)CO): 0.115

photoluminescence quantum yield (in ClC(Cl)Cl): 0.07
SMILES: Cc1ccc(N(c2ccc(C)cc2)c2ccc(-c3ccc(C=C(C#N)C#N)s3)cc2)cc1

photoluminescence quantum yield (in C1COCCO1): 0.7
photoluminescence quantum yield (in CC#N): 0.75
photoluminescence quantum yield (in CO): 0.58
SMILES: CN(C)c1ccc(/C=C/C=C/C2=NC3C(=O)NC(N)=NC3N2[C@H]2C[C@H](O)[C@@H](CO)O2)cc1 (some centres not stated)

photoluminescence quantum yield (in CC#N): 0.051
SMILES: N#C/C(=C\c1ccc([N+](=O)[O-])cc1)c1nc(-c2ccccc2)cs1

photoluminescence quantum yield (in CN(C)C=O): 0.7
photoluminescence quantum yield (in ClC(Cl)Cl): 0.8
SMILES: CCCCCCCCCCCCOc1cc2c(cc1OCCCCCCCCCCCC)C1=C3C(=O)N4C=Cc5cc(OCCCCCCCCCCCC)c(OCCCCCCCCCCCC)cc5C4=C3C(=O)N1C=C2

photoluminescence quantum yield (in CCO): 0.28
photoluminescence quantum yield (in ClCCl): 0.89
SMILES: Cc1ccccc1-c1c2ccc(=[N+]3CCCCC3)cc-2oc2cc(N3CCCCC3)ccc12

photoluminescence quantum yield (in ClCCl): 0.06
SMILES: c1ccc2c(c1)-c1sc3ccccc3c1C21c2ccccc2-c2sc3ccccc3c21

SMILES: O=c1c2ccccc2sc2ccccc12
photoluminescence quantum yield (in C1CCOC1): 0.012
photoluminescence quantum yield (in C1COCCO1): 0.015
photoluminescence quantum yield (in CC#N): 0.066
photoluminescence quantum yield (in CC(C)=O): 0.024
photoluminescence quantum yield (in CC(C)O): 0.14
photoluminescence quantum yield (in CCCCOC(C)=O): 0.0078
photoluminescence quantum yield (in CO): 0.25
photoluminescence quantum yield (in OCCO): 0.41
photoluminescence quantum yield (in c1ccccc1): 0.012

photoluminescence quantum yield (in C1CCOC1): 0.006
photoluminescence quantum yield (in CC#N): 0.004
photoluminescence quantum yield (in CCO): 0.043
photoluminescence quantum yield (in CS(C)=O): 0.025
SMILES: CCOC(=O)c1ccccc1-c1c2ccc(=O)cc-2oc2cc(OC(=O)[C@H](CSCc3ccc(C)cc3)NC(=O)OC(C)(C)C)ccc12

photoluminescence quantum yield (in ClC(Cl)Cl): 0.074
SMILES: COc1ccc(-n2c3c4ccccc4nc(-c4ccc(C#N)cc4)c3c3c2c2c(-c4ccc(C#N)cc4)nc4ccccc4c2n3-c2ccc(OC)cc2)cc1

photoluminescence quantum yield (in ClCCl): 0.4
SMILES: Cc1cc(C)c(C2=C3C=C(/C=C/C(=O)OC(C)(C)C)C=[N+]3[B-](F)(F)n3cc(/C=C/C(=O)OC(C)(C)C)cc32)c(C)c1

photoluminescence quantum yield (in CC#N): 0.93
SMILES: CC1=C(c2ccccc2)C2=Cc3c(-c4ccccc4)c(C)c(C)n3[B-](F)(F)[N+]2=C1C

photoluminescence quantum yield (in C1CCCCC1): 0.65
photoluminescence quantum yield (in C1CCOC1): 0.73
photoluminescence quantum yield (in CC#N): 0.58
photoluminescence quantum yield (in ClC(Cl)Cl): 0.8
photoluminescence quantum yield (in c1ccccc1): 0.89
SMILES: Cc1cc(C)c(B(c2c(C)cc(C)cc2C)c2cc3ccc4ccccc4c3c3c2ccc2ccccc23)c(C)c1

photoluminescence quantum yield (in CCO): 0.07
photoluminescence quantum yield (in ClCCl): 0.07
SMILES: N#Cc1cnc(-c2c3ccccc3cc3ccccc23)nc1

photoluminescence quantum yield (in c1cc(-n2c3ccccc3c3ccccc32)cc(-n2c3ccccc3c3ccccc32)c1): 0.724
SMILES: O=c1c2ccccc2n2c3ccccc3c(=O)c3cccc1c32

photoluminescence quantum yield (in ClCCl): 0.69
SMILES: CCCCn1c(-c2ccc(-c3nnc(-c4ccc(-c5nc(-c6ccccc6)c(-c6ccccc6)n5CCCC)cc4)o3)cc2)nc(-c2ccccc2)c1-c1ccccc1

photoluminescence quantum yield (in ClCCl): 0.634
SMILES: CCCCCCCCOc1cc(/C=C/c2ccncc2)c(OCCCCCCCC)cc1/C=C/c1ccncc1

SMILES: N#Cc1cccc(C#N)c1-n1c2ccccc2c2cc(-c3ccc4c(c3)c3ccccc3n4-c3c(C#N)cccc3C#N)ccc21
photoluminescence quantum yield (in Cc1ccccc1): 0.72
photoluminescence quantum yield [1]: 0.72

photoluminescence quantum yield (in C1CCCCC1): 0.64
SMILES: COc1ccc(-c2ccc(-c3ccc(OC)cc3)cc2)cc1

photoluminescence quantum yield (in CO): 0.0013
SMILES: C(/C=C/C1=[NH+]c2cccc3cccc1c23)=c1/[nH]c2cccc3cccc1c32

photoluminescence quantum yield (in ClCCl): 0.23
SMILES: F[B-]1(F)Oc2ccc(Br)cc2-c2c3c(c4c([n+]21)CCc1ccccc1-4)CCc1ccccc1-3

photoluminescence quantum yield (in ClC(Cl)Cl): 0.64
SMILES: CCCC1=CC2=C(c3c(C)cc(C)cc3C)c3cc(CCC)c(-c4ccc5ccc6cccc7ccc4c5c67)n3[B-](F)(F)[N+]2=C1c1ccc2ccc3cccc4ccc1c2c34

photoluminescence quantum yield (in C1CCOC1): 0.65
photoluminescence quantum yield (in CC#N): 0.26
photoluminescence quantum yield (in CCOC(C)=O): 0.58
photoluminescence quantum yield (in CN(C)C=O): 0.32
photoluminescence quantum yield (in ClCCl): 0.5
SMILES: CCn1c2ccc(/C=C/c3ccc4c(c3)c3cc(-c5nc6ccccc6s5)ccc3n4CC)cc2c2cc(-c3nc4ccccc4s3)ccc21

SMILES: CCCCCCCCc1ccc(-c2c3cc(-c4cc(CCCCCCCC)c(-c5ccc(-c6sc(/C=C7\SC(N8CCCCC8)=NC7=O)cc6CCCCCCCC)s5)s4)sc3c(-c3ccc(CCCCCCCC)s3)c3cc(-c4cc(CCCCCCCC)c(-c5ccc(-c6sc(/C=C7\SC(N8CCCCC8)=NC7=O)cc6CCCCCCCC)s5)s4)sc23)s1
photoluminescence quantum yield (in C1CCOC1): 0.214
photoluminescence quantum yield (in Cc1ccccc1): 0.211
photoluminescence quantum yield (in ClC(Cl)Cl): 0.128
photoluminescence quantum yield (in ClCCl): 0.144
photoluminescence quantum yield (in Clc1ccccc1): 0.186

photoluminescence quantum yield (in CCO): 0.03
SMILES: c1ccc(N(c2ccccc2)c2ccccc2)cc1

SMILES: CN(C)c1ccc(C(=O)Nc2cccc(Cl)c2)cc1
photoluminescence quantum yield (in C1CCCCC1): 0.0031
photoluminescence quantum yield (in C1CCOC1): 0.0263
photoluminescence quantum yield (in CC#N): 0.0319
photoluminescence quantum yield (in CCOCC): 0.0103
